Experiments:
LD50 (i.p.) of 3'-dAdo = conditions: in vivo, ip
EMT-6 tumors = experiment: Radiosensitizing effect on EMT-6 tumor in mouse, cure percentage and TCD50; format: in vivo, BALB/c-strain female mice; conditions: 100 mg/kg i.p. after irradiation; for Cure number/Number treated / Cure percentage: >90 days
Protocol: EMT-6 tumor cells (2×10^5) were inoculated intradermally into the right thighs of BALB/c-strain female mice (8 weeks old). When the tumor sizes reached 5.5 to 8.0 mm after inoculation of the tumor cells, irradiation was locally carried out with 1,000 rad to 2,700 rad of 32 MeV electron beam under no anesthesia, and thereafter 3'-dAdo and 3'-dGuo, each dissolved in physiological saline solution, were administered intraperitoneally in a dose of 100 mg/kg. After the treatments, observation was continued for longer than 90 days, and the cure percentages were determined for comparison with the control group. [formula]
(2) TCD50 =50% Tumor control dose

adenosinedeaminase = conditions: in bodies; cited from earlier work
[1] = test system: potentially lethal damage repair; experiment: PLDR-inhibiting / radiosensitizing activity (general statements)

Nc1ncnc2c1ncn2[C@@H]1O[C@H](CO)C[C@H]1O [3'-dAdo, 3'-deoxyadenosine, reference compound]
LD50 (LD50 (i.p.) of 3'-dAdo): 280 mg/kg
TCD50 (50% Tumor control dose) (EMT-6 tumors; radiation doses given in rad, control 2400): 1600 rad
TCD50 ratio (EMT-6 tumors; relative to control 1.0): 0.67
Cure number/Number treated (EMT-6 tumors; 1,000 rad, control 1/23): 3/18
Cure percentage (EMT-6 tumors; 1,000 rad, control 4%): 17%
Cure number/Number treated (EMT-6 tumors; 1,500 rad, control 8/44): 14/29
Cure percentage (EMT-6 tumors; 1,500 rad, control 18%): 48%
Cure number/Number treated (EMT-6 tumors; 2,100 rad, control 9/24): 11/14
Cure percentage (EMT-6 tumors; 2,100 rad, control 38%): 79%
Cure number/Number treated (EMT-6 tumors; 2,700 rad, control 13/28): 10/15
Cure percentage (EMT-6 tumors; 2,700 rad, control 47%): 67%
Inactivation by adenosinedeaminase (adenosinedeaminase): readily inactivated by adenosinedeaminase in bodies
Radiosensitizing activity [1]: excellent radiosensitizing activities
PLDR-inhibiting ability of 3'-dAdo in combination with 2'-deoxycoformycin ([1]; combination of 3'-dAdo with 2'-deoxycoformycin): can be strengthened and prolonged
